SMILES strings stand for the structures. pIC50: −log10 of the molar value.

For the assay, the target named is human PDE4D catalytic domain (UniProt no. Q08499) (Homo sapiens (Human), UniProt Q08499). Put plainly: PDE4 assay (TR-FRET, FAM-cAMP cleavage). Format: biochemical. To be noted: human PDE4D catalytic domain; molar concentration giving 50% inhibition of substrate cleavage; read-out: PDE4 IC50 range. In outline: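 Read-out is time-resolved FRET from Tb donor to FAM-AMP captured on trivalent-metal nanoparticles added to stop the reaction. Substrate was a mix of plain and FAM-labelled cAMP, cleaved by human PDE4D catalytic domain ([…]) with titrated compound; IC50 ranges (nM) versus controls.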
Chain of human PDE4D catalytic domain (Q08499 380-740 limits assumed): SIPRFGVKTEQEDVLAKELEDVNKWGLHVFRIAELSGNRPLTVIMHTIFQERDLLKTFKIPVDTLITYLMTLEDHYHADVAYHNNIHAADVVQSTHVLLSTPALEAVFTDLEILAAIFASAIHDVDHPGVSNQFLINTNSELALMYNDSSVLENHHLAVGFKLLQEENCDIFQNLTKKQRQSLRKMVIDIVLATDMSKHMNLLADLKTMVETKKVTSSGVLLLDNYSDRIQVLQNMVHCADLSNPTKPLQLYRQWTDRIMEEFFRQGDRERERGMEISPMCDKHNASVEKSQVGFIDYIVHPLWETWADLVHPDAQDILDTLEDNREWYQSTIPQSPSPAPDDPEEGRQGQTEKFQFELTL
(In TR-FRET formats the signal depends on donor and acceptor labels being close together.)
Usually pIC50 stands for −log10 of the IC50, conventionally taken in molar units. Turning to `CCc1nn(C[C@@H](C)COC(=O)c2c(F)cccc2Cl)c2c1C(=O)NCC1(CCOCC1)C2` [Example 203, [(2R)-3-(3-ethyl-4-oxo-spiro[6,8-dihydro-5H-pyrazolo[4,3-c]azepine-7,4′-tetrahydropyran]-1-yl)-2-methyl-propyl] 2-chloro-6-fluoro-benzoate], the pIC50 is more than 7.00.
In the case of `CCc1nn(C[C@@H](C)COC(=O)c2ccc(F)c(Cl)c2)c2c1C(=O)NCC1(CCOCC1)C2` [Example 204, [(2R)-3-(3-ethyl-4-oxo-spiro[6,8-dihydro-5H-pyrazolo[4,3-c]azepine-7,4′-tetrahydropyran]-1-yl)-2-methyl-propyl] 3-chloro-4-fluoro-benzoate] it was more than 7.00; in that of `CCc1nn(C[C@@H](C)COC(=O)c2ccc(Cl)cc2F)c2c1C(=O)NCC1(CCOCC1)C2` [Example 205, [(2R)-3-(3-ethyl-4-oxo-spiro[6,8-dihydro-5H-pyrazolo[4,3-c]azepine-7,4′-tetrahydropyran]-1-yl)-2-methyl-propyl] 4-chloro-2-fluoro-benzoate], more than 7.00.
As for `CCc1nn(C[C@@H](C)COC(=O)c2ccc(OC)c(Cl)c2)c2c1C(=O)NCC1(CCOCC1)C2` [Example 206, [(2R)-3-(3-ethyl-4-oxo-spiro[6,8-dihydro-5H-pyrazolo[4,3-c]azepine-7,4′-tetrahydropyran]-1-yl)-2-methyl-propyl] 3-chloro-4-methoxy-benzoate], the pIC50 is more than 7.00.
As for `CCc1nn(C[C@@H](C)COC(=O)c2cccc(OC)c2Cl)c2c1C(=O)NCC1(CCOCC1)C2` [Example 207, [(2R)-3-(3-ethyl-4-oxo-spiro[6,8-dihydro-5H-pyrazolo[4,3-c]azepine-7,4′-tetrahydropyran]-1-yl)-2-methyl-propyl] 2-chloro-3-methoxy-benzoate], the figure is more than 7.00; as for `CCc1nn(C[C@@H](C)COC(=O)c2ccc(Cl)c(OC)c2)c2c1C(=O)NCC1(CCOCC1)C2` [Example 208, [(2R)-3-(3-ethyl-4-oxo-spiro[6,8-dihydro-5H-pyrazolo[4,3-c]azepine-7,4′-tetrahydropyran]-1-yl)-2-methyl-propyl] 4-chloro-3-methoxy-benzoate], more than 7.00.
As for `CCc1nn(C[C@@H](C)COC(=O)c2cccc(Cl)c2OC)c2c1C(=O)NCC1(CCOCC1)C2` [Example 209, [(2R)-3-(3-ethyl-4-oxo-spiro[6,8-dihydro-5H-pyrazolo[4,3-c]azepine-7,4′-tetrahydropyran]-1-yl)-2-methyl-propyl] 3-chloro-2-methoxy-benzoate], the figure is more than 7.00.
In the case of `CCc1nn(C[C@@H](C)COC(=O)c2cc(Cl)ccc2OC)c2c1C(=O)NCC1(CCOCC1)C2` [Example 210, [(2R)-3-(3-ethyl-4-oxo-spiro[6,8-dihydro-5H-pyrazolo[4,3-c]azepine-7,4′-tetrahydropyran]-1-yl)-2-methyl-propyl] 5-chloro-2-methoxy-benzoate] it was more than 7.00; in that of `CCc1nn(C[C@@H](C)COC(=O)c2ccc(Cl)cc2OC)c2c1C(=O)NCC1(CCOCC1)C2` [Example 211, [(2R)-3-(3-ethyl-4-oxo-spiro[6,8-dihydro-5H-pyrazolo[4,3-c]azepine-7,4′-tetrahydropyran]-1-yl)-2-methyl-propyl] 4-chloro-2-methoxy-benzoate], more than 7.00.
As for `CCc1nn(C[C@@H](C)COC(=O)c2ccc(C(F)(F)F)cc2)c2c1C(=O)NCC1(CCOCC1)C2` [Example 212, [(2R)-3-(3-ethyl-4-oxo-spiro[6,8-dihydro-5H-pyrazolo[4,3-c]azepine-7,4′-tetrahydropyran]-1-yl)-2-methyl-propyl] 4-(trifluoromethyl)benzoate], the pIC50 was more than 7.00.
As for `CCc1nn(C[C@@H](C)COC(=O)c2cccc(S(C)(=O)=O)c2)c2c1C(=O)NCC1(CCOCC1)C2` [Example 213, [(2R)-3-(3-ethyl-4-oxo-spiro[6,8-dihydro-5H-pyrazolo[4,3-c]azepine-7,4′-tetrahydropyran]-1-yl)-2-methyl-propyl] 3-methylsulfonylbenzoate], the figure is more than 7.00; as for `CCc1nn(C[C@@H](C)COC(=O)c2ccccc2S(C)(=O)=O)c2c1C(=O)NCC1(CCOCC1)C2` [Example 214, [(2R)-3-(3-ethyl-4-oxo-spiro[6,8-dihydro-5H-pyrazolo[4,3-c]azepine-7,4′-tetrahydropyran]-1-yl)-2-methyl-propyl] 2-methylsulfonylbenzoate], more than 7.00; as for `CCc1nn(C[C@@H](C)COC(=O)c2ccc(S(N)(=O)=O)cc2)c2c1C(=O)NCC1(CCOCC1)C2` [Example 215, [(2R)-3-(3-ethyl-4-oxo-spiro[6,8-dihydro-5H-pyrazolo[4,3-c]azepine-7,4′-tetrahydropyran]-1-yl)-2-methyl-propyl] 4-sulfamoylbenzoate], more than 7.00.
`CCc1nn(C[C@@H](C)COC(=O)c2cccc(C(F)(F)F)c2C)c2c1C(=O)NCC1(CCOCC1)C2` [Example 217, [(2R)-3-(3-ethyl-4-oxo-spiro[6,8-dihydro-5H-pyrazolo[4,3-c]azepine-7,4′-tetrahydropyran]-1-yl)-2-methyl-propyl] 2-methyl-3-(trifluoromethyl)benzoate]: the pIC50 is more than 7.00.
Take `CCc1nn(C[C@@H](C)COC(=O)c2cc(C(F)(F)F)ccc2C)c2c1C(=O)NCC1(CCOCC1)C2` [Example 218, [(2R)-3-(3-ethyl-4-oxo-spiro[6,8-dihydro-5H-pyrazolo[4,3-c]azepine-7,4′-tetrahydropyran]-1-yl)-2-methyl-propyl] 2-methyl-5-(trifluoromethyl)benzoate]: the pIC50 was more than 7.00.
As for `CCc1nn(C[C@@H](C)COC(=O)c2ccc(C(F)(F)F)c(F)c2)c2c1C(=O)NCC1(CCOCC1)C2` [Example 219, [(2R)-3-(3-ethyl-4-oxo-spiro[6,8-dihydro-5H-pyrazolo[4,3-c]azepine-7,4′-tetrahydropyran]-1-yl)-2-methyl-propyl] 3-fluoro-4-(trifluoromethyl)benzoate], the figure is more than 7.00.
As for `CCc1nn(C[C@@H](C)COC(=O)c2cc(C(F)(F)F)ccc2F)c2c1C(=O)NCC1(CCOCC1)C2` [Example 220, [(2R)-3-(3-ethyl-4-oxo-spiro[6,8-dihydro-5H-pyrazolo[4,3-c]azepine-7,4′-tetrahydropyran]-1-yl)-2-methyl-propyl] 2-fluoro-5-(trifluoromethyl)benzoate], the figure is more than 7.00; as for `CCc1nn(C[C@@H](C)COC(=O)c2ccc(C(F)(F)F)cc2F)c2c1C(=O)NCC1(CCOCC1)C2` [Example 221, [(2R)-3-(3-ethyl-4-oxo-spiro[6,8-dihydro-5H-pyrazolo[4,3-c]azepine-7,4′-tetrahydropyran]-1-yl)-2-methyl-propyl] 2-fluoro-4-(trifluoromethyl)benzoate], more than 7.00.
As for `CCc1nn(C[C@@H](C)COC(=O)c2ccc(F)cc2C(F)(F)F)c2c1C(=O)NCC1(CCOCC1)C2` [Example 222, [(2R)-3-(3-ethyl-4-oxo-spiro[6,8-dihydro-5H-pyrazolo[4,3-c]azepine-7,4′-tetrahydropyran]-1-yl)-2-methyl-propyl] 4-fluoro-2-(trifluoromethyl)benzoate], the pIC50 was more than 7.00.
As for `CCc1nn(C[C@@H](C)COC(=O)c2cc(F)ccc2C(F)(F)F)c2c1C(=O)NCC1(CCOCC1)C2` [Example 223, [(2R)-3-(3-ethyl-4-oxo-spiro[6,8-dihydro-5H-pyrazolo[4,3-c]azepine-7,4′-tetrahydropyran]-1-yl)-2-methyl-propyl] 5-fluoro-2-(trifluoromethyl)benzoate], the figure is more than 7.00; as for `CCc1nn(C[C@@H](C)COC(=O)c2ccc(F)c(C(F)(F)F)c2)c2c1C(=O)NCC1(CCOCC1)C2` [Example 224, [(2R)-3-(3-ethyl-4-oxo-spiro[6,8-dihydro-5H-pyrazolo[4,3-c]azepine-7,4′-tetrahydropyran]-1-yl)-2-methyl-propyl] 4-fluoro-3-(trifluoromethyl)benzoate], more than 7.00; as for `CCc1nn(C[C@@H](C)COC(=O)c2cc(F)cc(C(F)(F)F)c2)c2c1C(=O)NCC1(CCOCC1)C2` [Example 225, [(2R)-3-(3-ethyl-4-oxo-spiro[6,8-dihydro-5H-pyrazolo[4,3-c]azepine-7,4′-tetrahydropyran]-1-yl)-2-methyl-propyl] 3-fluoro-5-(trifluoromethyl)benzoate], more than 7.00.
In the case of `CCc1nn(C[C@@H](C)COC(=O)c2cccc(S(=O)(=O)CC)c2)c2c1C(=O)NCC1(CCOCC1)C2` [Example 226, [(2R)-3-(3-ethyl-4-oxo-spiro[6,8-dihydro-5H-pyrazolo[4,3-c]azepine-7,4′-tetrahydropyran]-1-yl)-2-methyl-propyl] 3-ethylsulfonylbenzoate] it was more than 7.00; in that of `CCc1nn(C[C@@H](C)COC(=O)c2ccc(S(=O)(=O)CC)cc2)c2c1C(=O)NCC1(CCOCC1)C2` [Example 227, [(2R)-3-(3-ethyl-4-oxo-spiro[6,8-dihydro-5H-pyrazolo[4,3-c]azepine-7,4′-tetrahydropyran]-1-yl)-2-methyl-propyl] 4-ethylsulfonylbenzoate], more than 7.00.
In the case of `CCc1nn(C[C@@H](C)COC(=O)c2cccc(S(=O)(=O)NC)c2)c2c1C(=O)NCC1(CCOCC1)C2` [Example 228, [(2R)-3-(3-ethyl-4-oxo-spiro[6,8-dihydro-5H-pyrazolo[4,3-c]azepine-7,4′-tetrahydropyran]-1-yl)-2-methyl-propyl] 3-(methylsulfamoyl)benzoate] it was more than 7.00; in that of `CCc1nn(C[C@@H](C)COC(=O)c2ccc(OC)cc2C(F)(F)F)c2c1C(=O)NCC1(CCOCC1)C2` [Example 229, [(2R)-3-(3-ethyl-4-oxo-spiro[6,8-dihydro-5H-pyrazolo[4,3-c]azepine-7,4′-tetrahydropyran]-1-yl)-2-methyl-propyl] 4-methoxy-2-(trifluoromethyl)benzoate], more than 7.00.

For the origin of these results see US10906915B2, “Substituted pyrazoloazepin-4-ones and their use as phosphodiesterase inhibitors” (LEO Pharma A/S, priority 2016, dated 2021).
